According to the NIST ThermoML archive (doi:10.1021/je100472t):

Test: xn = mol fraction of the nth substance listed
Details: 101 kPa, Liquid; for speed of sound: Pulse-echo method; for mass density: Vibrating tube method

CNc1ccccc1 [N-methylaniline] + CCC(C)=O
Details	mass density [kg/m3]	speed of sound [m/s]
293.15 K, x2 = 0.0627	977.942	1562.9
293.15 K, x2 = 0.1133	970.977	1546.9
293.15 K, x2 = 0.1564	964.888	1532.9
293.15 K, x2 = 0.2058	957.75	1517
293.15 K, x2 = 0.2538	950.572	1501
293.15 K, x2 = 0.3018	943.182	1484.8
293.15 K, x2 = 0.3464	936.057	1469.4
293.15 K, x2 = 0.3938	928.444	1453
293.15 K, x2 = 0.4435	920.205	1435.6
293.15 K, x2 = 0.4907	912.022	1418.5
293.15 K, x2 = 0.5508	901.21	1396.2
293.15 K, x2 = 0.5959	892.779	1378.9
293.15 K, x2 = 0.6529	881.753	1356.6
293.15 K, x2 = 0.7489	862.241	1318.2
293.15 K, x2 = 0.7938	852.894	1300
293.15 K, x2 = 0.8492	840.63	1277
293.15 K, x2 = 0.8981	829.68	1256.7
293.15 K, x2 = 0.9525	816.716	1232.9
298.15 K, x2 = 0.076	972.066	1540.1
298.15 K, x2 = 0.1115	967.149	1528.8
298.15 K, x2 = 0.1566	960.718	1514.2
298.15 K, x2 = 0.2076	953.334	1497.6
298.15 K, x2 = 0.2589	945.633	1480.6
298.15 K, x2 = 0.2967	939.765	1467.7
298.15 K, x2 = 0.3471	931.809	1450.5
298.15 K, x2 = 0.3973	923.563	1432.8
298.15 K, x2 = 0.4477	915.055	1414.8
298.15 K, x2 = 0.495	906.694	1397.2
298.15 K, x2 = 0.5471	897.284	1377.8
298.15 K, x2 = 0.5992	887.579	1357.9
298.15 K, x2 = 0.6921	869.471	1321.7
298.15 K, x2 = 0.7463	858.202	1299.5
298.15 K, x2 = 0.8007	846.555	1277
298.15 K, x2 = 0.847	836.277	1257.5
298.15 K, x2 = 0.8993	824.346	1235.1
298.15 K, x2 = 0.9472	813	1214.5
303.15 K, x2 = 0.0641	969.669	1526
303.15 K, x2 = 0.1123	962.964	1510.7
303.15 K, x2 = 0.1581	956.434	1495.9
303.15 K, x2 = 0.2036	949.789	1481.1
303.15 K, x2 = 0.2591	941.381	1462.5
303.15 K, x2 = 0.3061	934.049	1446.5
303.15 K, x2 = 0.3513	926.789	1430.8
303.15 K, x2 = 0.4022	918.424	1412.9
303.15 K, x2 = 0.4472	910.653	1396.5
303.15 K, x2 = 0.5025	900.926	1376.1
303.15 K, x2 = 0.5536	891.605	1356.9
303.15 K, x2 = 0.5984	883.203	1339.7
303.15 K, x2 = 0.6489	873.485	1320.1
303.15 K, x2 = 0.6969	863.705	1300.7
303.15 K, x2 = 0.7543	851.719	1277.1
303.15 K, x2 = 0.8047	840.797	1256
303.15 K, x2 = 0.8497	830.818	1237.1
303.15 K, x2 = 0.8965	819.999	1216.8
303.15 K, x2 = 0.9524	806.615	1192.2

c1ccncc1 [pyridine] + CCC(C)=O
Details	mass density [kg/m3]	speed of sound [m/s]
293.15 K, x2 = 0.0584	972.18	1424.6
293.15 K, x2 = 0.101	964.232	1415.8
293.15 K, x2 = 0.1557	954.114	1404.3
293.15 K, x2 = 0.2073	944.625	1393.3
293.15 K, x2 = 0.2479	937.177	1384.6
293.15 K, x2 = 0.2928	929.036	1374.9
293.15 K, x2 = 0.3534	918.142	1361.8
293.15 K, x2 = 0.3992	909.88	1351.6
293.15 K, x2 = 0.4535	900.169	1339.5
293.15 K, x2 = 0.4962	892.606	1330
293.15 K, x2 = 0.5461	883.748	1318.7
293.15 K, x2 = 0.5481	883.417	1318.2
293.15 K, x2 = 0.6003	874.227	1306.4
293.15 K, x2 = 0.6425	866.814	1296.7
293.15 K, x2 = 0.6948	857.663	1284.5
293.15 K, x2 = 0.7267	852.119	1277.1
293.15 K, x2 = 0.7519	847.742	1271.2
293.15 K, x2 = 0.8053	838.532	1258.7
293.15 K, x2 = 0.855	829.934	1246.9
293.15 K, x2 = 0.8907	823.832	1238.4
293.15 K, x2 = 0.9459	814.255	1224.9
298.15 K, x2 = 0.0517	968.413	1405.7
298.15 K, x2 = 0.1009	959.234	1395.4
298.15 K, x2 = 0.151	949.923	1384.8
298.15 K, x2 = 0.1952	941.811	1375.4
298.15 K, x2 = 0.2473	932.304	1364.2
298.15 K, x2 = 0.301	922.495	1352.5
298.15 K, x2 = 0.3559	912.585	1340.4
298.15 K, x2 = 0.4041	903.885	1329.7
298.15 K, x2 = 0.4494	895.816	1319.6
298.15 K, x2 = 0.4994	886.914	1308.4
298.15 K, x2 = 0.5472	878.48	1297.6
298.15 K, x2 = 0.5916	870.664	1287.4
298.15 K, x2 = 0.6951	852.55	1263.5
298.15 K, x2 = 0.7563	841.861	1249.2
298.15 K, x2 = 0.8029	833.777	1238.1
298.15 K, x2 = 0.8525	825.199	1226.2
298.15 K, x2 = 0.8944	817.974	1216.2
298.15 K, x2 = 0.9525	808.018	1202.3
303.15 K, x2 = 0.0589	962.089	1384.7
303.15 K, x2 = 0.117	951.238	1372.5
303.15 K, x2 = 0.162	942.929	1362.9
303.15 K, x2 = 0.2056	934.925	1353.6
303.15 K, x2 = 0.2489	926.99	1344.2
303.15 K, x2 = 0.3075	916.353	1331.5
303.15 K, x2 = 0.3506	908.572	1322
303.15 K, x2 = 0.4016	899.409	1310.8
303.15 K, x2 = 0.4494	890.804	1300
303.15 K, x2 = 0.4959	882.52	1289.5
303.15 K, x2 = 0.5482	873.285	1277.7
303.15 K, x2 = 0.5967	864.734	1266.6
303.15 K, x2 = 0.6484	855.625	1254.6
303.15 K, x2 = 0.6972	847.054	1243.1
303.15 K, x2 = 0.7446	838.804	1232.1
303.15 K, x2 = 0.7952	829.99	1220
303.15 K, x2 = 0.8476	820.935	1207.6
303.15 K, x2 = 0.8928	813.143	1196.8
303.15 K, x2 = 0.9371	805.515	1186
